# What was measured:
# [1] = target: T1, C-C chemokine receptor type 5 (Homo sapiens, UniProt P51681); assay: ChEBML_39507
# Source text: (§1) Binding affinity against C-C chemokine receptor type 5 stably expressed in Chinese hamster ovary (CHO) cells using [125I]-MIP-1 alpha as the radioligand
# [2] = target: T1, C-C chemokine receptor type 5; assay: as §1
# T1 sequence (P51681 whole entry): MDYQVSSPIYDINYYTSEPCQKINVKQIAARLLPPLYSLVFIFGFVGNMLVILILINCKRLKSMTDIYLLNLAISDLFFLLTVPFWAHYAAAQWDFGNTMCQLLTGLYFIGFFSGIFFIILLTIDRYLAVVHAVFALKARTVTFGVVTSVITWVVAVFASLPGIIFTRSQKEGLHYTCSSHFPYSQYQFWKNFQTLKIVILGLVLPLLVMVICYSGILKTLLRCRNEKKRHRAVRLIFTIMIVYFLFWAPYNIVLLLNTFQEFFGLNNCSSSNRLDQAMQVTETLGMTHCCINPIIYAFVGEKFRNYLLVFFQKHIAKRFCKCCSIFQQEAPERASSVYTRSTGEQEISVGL
smiles,measurement,setting,value
"O=c1[nH]c(Cc2c[nH]c3ccccc23)c(O)n1CC(CCN1CCC(c2ccccc2)CC1)c1cccc(Cl)c1 [(R)-3-[2-(3-Chloro-phenyl)-4-(4-phenyl-piperidin-1-yl)-butyl]-5-(1H-indol-3-ylmethyl)-imidazolidine-2,4-dione]",IC50,[1],0.025 µM
same,IC50,[2],0.025 µM

# Source: BindingDB's records for doi:10.1016/s0960-894x(01)00654-0 (Merck Research Laboratories, 2001)
